Measurements taken from paper PMC8000840, “Novel IMB16-4 Compound Loaded into Silica Nanoparticles Exhibits Enhanced Oral Bioavailability and Increased Anti-Liver Fibrosis In Vitro” (Molecules, 2021).
In brackets after ≈: the same amount, converted by molar mass.

Tests used:
[1] = system: α-SMA, TGF-β1 and MMP2 protein levels in LX-2 cells; test: In vitro antifibrotic effects, Western blot of hepatic fibrogenic markers after TGFβ1 stimulation; assay type: cell-based, human; details: IMB16-4 2 µM, TGFβ1 2 ng/mL, 24 h
Description: After ultraviolet sterilization, raw IMB16-4, IMB16-4-MSNs and MSNs were suspended in water, respectively. Another group of raw IMB16-4 was suspended in DMSO. The concentration of IMB16-4 was 2 mM. Then, 2µL of solution containing IMB16-4 was added into 2 mL of serum-free culture with TGFβ1. LX-2 cells were cultured as described above. LX-2 cells were seeded in a 6-well plate, cultured in DMEM/GlutaMAX I, containing 10% fetal bovine serum (FBS) in 5% CO2 atmosphere at 37 °C. Serum-free culture was replaced until the cells reached 90 ≈ 95% confluence. After 24 h, cells were treated with TGFβ1 (2 ng/mL) and IMB16-4 (2 µM) for 24 h. Then, cells were washed with phosphate buffer saline (PBS) and protein was extracted in radio-immunoprecipitation assay (RIPA) buffer. Then mixture was centrifuged at 12,000 rpm at 4 °C for 20 min. The supernatant was collected, and the total protein was determined using the bicinchoninic acid (BCA) protein assay kit (Beyotime Biotechnology, China). Samples were applied to the 10% SDS-PAGE gel. Then, the protein bands were transferred to a polyvinylidene difluoride (PVDF) membrane (Millipore Corp, Atlanta, GA, USA) and the membrane was blocked for 1 h with 5% nonfat milk. […] The protein bands were analyzed on an imager (Tanon5200, China).

[2] = Equilibrium concentration (solubility) study in water; assay type: physicochemical; details: distilled water; raw IMB16-4 in water, 25 ± 2 °C, equilibrium about 24 h
Description: An excess amount of raw IMB16-4 was added into 5 mL of distilled water at 25 ± 2 °C. The raw IMB16-4 solution at equilibrium time (about 24 h) was withdrawn and filtered using a 0.22 μm membrane. The subsequent filtrate was diluted with internal standard (4′-Chloroacetanilide) acetonitrile solution and analyzed by HPLC-MS/MS analysis (Thermo LTQ XL, USA). The standard curve for IMB16-4 was the linear (R^2 > 0.992) over the concentration range of 0.3~1200.0 ng/mL. The quantitative ion pair of IMB16-4 and internal standard quantitative were m/z = 499.9/196.0 and m/z = 168.04/126.1, respectively.

[3] = In vitro dissolution, USP II paddle method; assay type: physicochemical; details: release medium, 12 h, 37 °C, 3% SDS
Description: Dissolution studies were conducted using a USP II paddle method (100 rpm, 37 °C, and 900 mL dissolution medium) with a dissolution tester (ZRS-8LD, China). The release of IMB16-4 and IMB16-4-MSNs was performed in pH 1.0 hydrochloric acid solution and pH 6.8 phosphate buffer solutions, containing 3% (w/v) SDS, respectively. All release studies were carried out in triplicate. At predetermined time intervals, 5 mL of sample solution was withdrawn from the release medium and filtered using a 0.22 μm membrane filter before running the HPLC analysis. An equivalent amount of fresh medium was added to maintain a constant dissolution volume.

[4] = Oral pharmacokinetics study; assay type: in vivo, Sprague–Dawley (SD) rats; details: SD rats, oral gavage 100 mg/kg
Description: The mice were maintained under a specific pathogen-free (SPF) environment with a 12 h light/dark cycle. SD rats (body weight 200 ± 20 g) were fasted overnight and divided into two groups. Raw IMB16-4 and IMB16-4-MSNs were given orally by gavages at a dose of 100 mg/kg, respectively. Before administering, both IMB16-4-MSNs and raw IMB16-4 were dispersed in 0.5% CMC-Na aqueous solution, respectively. Blood samples were collected from the eye socket vein at time points of 0.17, 0.5, 1, 2, 3, 4, 6, 8 and 12 h after dosing. Plasma samples were collected by centrifuging at 3000 rpm for 10 min and were then stored at −20 °C until analysis. Plasma samples were mixed with internal standard (4′-Chloroacetanilide) acetonitrile solution. Then, the mixture was vortex-mixed for 10 s. After centrifugation at 15,000 rpm for 10 min, the supernatant was used for HPLC-MS/MS analysis (AB SCIEX 6500 Qtrap, USA). The condition of the capillary voltage was −4500 V. The temperature was 500 °C. The mobile phase comprised acetonitrile and 10 mM of ammonium acetate aqueous solution. Analysis was carried out on an Xselect HSS T3 column (2.1 × 100 mm, 2.5 μm, Waters) in gradient elution. The column temperature was 40 °C and the flow rate was 0.3 mL/min. The standard curve for IMB16-4 was the linear (R^2 > 0.992) over the concentration range of 4~2048 ng/mL. The quantitative ion pairs of IMB16-4 and internal standard quantitative were m/z = 500.0/195.7 and m/z = 168.0/126.1, respectively. The pharmacokinetic parameters were obtained using statistic software DAS2.0.

[5] = system: NAFLD model rats; design: method as in PMID 23752471, PMID 30573812; details: NAFLD model rats ref 18, 19; cited from earlier work

Row | solubility [2] | amount of dissolved IMB16-4 [3] | CLz/F [4] | Tmax ([4]; Sprague-Dawley, rat, plasma) | Cmax ([4]; Sprague-Dawley, rat, plasma, in 0.5% CMC-Na) | AUC ([4]; Sprague-Dawley, rat, plasma, read-out: AUC0≈12 h) | MRT ([4]; Sprague-Dawley, rat, plasma, read-out: MRT0≈12 h) | Compound | protein levels of α-SMA, TGF-β1 and MMP2 (antifibrotic effect) ([1]; dissolved by DMSO) | protein levels of α-SMA, TGF-β1 and MMP2 (antifibrotic effect) ([1]; suspended in sterile water) | hepatoprotective effects [5]
1 | 0.0432 ± 0.0091 µg/mL (≈ 0.0863 µM) | about 40% | 54.70 ± 23.57 | 3.43 ± 1.4 h | 180 ± 40 ng/mL | 1240 ± 310 ng·h/mL | 5.18 ± 0.77 h | O=C(Nc1cc(Cl)c(Cl)c(Cl)c1)c1ccccc1NS(=O)(=O)c1cccc([N+](=O)[O-])c1 [IMB16-4, N-(3,4,5-trichlorophenyl)-2(3-nitrobenzenesulfonamido) benzamide] | showed potential anti-liver fibrosis effects. However, the differences are not significant | poor inhibition effect | 
2 |  |  |  |  |  |  |  | N-(3,4-dichlorophenyl)-2-(3-trifluoromethoxy) benzamide [IMB17-15] |  |  | has hepatoprotective effects
